Source: the NIST ThermoML archive (doi:10.1016/j.jct.2007.07.005)
Numbers after ± are expanded uncertainties.

Experiment: xn = mol fraction of the nth substance listed
Settings: Fluid (supercritical or subcritical phases), vibrating tube

CCCCCO [pentan-1-ol] + O=C=O
Settings	mass density [kg/m3]
342.87 K, 20033 kPa, x2 = 0.4651	814.31 ± 0.45
342.87 K, 21025 kPa, x2 = 0.4651	815.82 ± 0.45
342.87 K, 21037 kPa, x2 = 0.3624	811.12 ± 0.45
342.87 K, 21039 kPa, x2 = 0.7274	812.39 ± 0.46
342.87 K, 21983 kPa, x2 = 0.4651	817.26 ± 0.45
342.87 K, 21990 kPa, x2 = 0.3624	812.11 ± 0.45
342.87 K, 22001 kPa, x2 = 0.7274	815.49 ± 0.46
342.87 K, 23014 kPa, x2 = 0.4651	818.77 ± 0.45
342.87 K, 23015 kPa, x2 = 0.7274	818.69 ± 0.46
342.87 K, 23033 kPa, x2 = 0.3624	813.18 ± 0.45
342.87 K, 24005 kPa, x2 = 0.3624	814.16 ± 0.45
342.87 K, 24023 kPa, x2 = 0.4651	820.23 ± 0.45
342.87 K, 24099 kPa, x2 = 0.7274	821.95 ± 0.46
342.87 K, 25028 kPa, x2 = 0.3624	815.18 ± 0.45
342.88 K, 3034 kPa, x2 = 0.0816	781.33 ± 0.43
342.88 K, 4000 kPa, x2 = 0.0816	782.24 ± 0.43
342.88 K, 4969 kPa, x2 = 0.0816	783.19 ± 0.44
342.88 K, 5981 kPa, x2 = 0.0816	784.14 ± 0.44
342.88 K, 7023 kPa, x2 = 0.0816	785.12 ± 0.44
342.88 K, 8012 kPa, x2 = 0.0816	786.04 ± 0.44
342.88 K, 9030 kPa, x2 = 0.0816	786.97 ± 0.44
342.88 K, 10026 kPa, x2 = 0.0816	787.86 ± 0.44
342.88 K, 10992 kPa, x2 = 0.0816	788.72 ± 0.44
342.88 K, 11981 kPa, x2 = 0.0816	789.59 ± 0.44
342.88 K, 13062 kPa, x2 = 0.0816	790.54 ± 0.44
342.88 K, 14001 kPa, x2 = 0.9216	654.38 ± 0.75
342.88 K, 14013 kPa, x2 = 0.0816	791.33 ± 0.44
342.88 K, 15014 kPa, x2 = 0.9216	679.88 ± 0.73
342.88 K, 15025 kPa, x2 = 0.0816	792.19 ± 0.44
342.88 K, 15995 kPa, x2 = 0.0816	793.03 ± 0.44
342.88 K, 16009 kPa, x2 = 0.9216	699.02 ± 0.66
342.88 K, 16999 kPa, x2 = 0.0816	793.86 ± 0.44
342.88 K, 17032 kPa, x2 = 0.9216	715.18 ± 0.61
342.88 K, 18002 kPa, x2 = 0.9216	728.34 ± 0.58
342.88 K, 18009 kPa, x2 = 0.0816	794.69 ± 0.45
342.88 K, 19029 kPa, x2 = 0.0816	795.51 ± 0.45
342.88 K, 19057 kPa, x2 = 0.9216	740.82 ± 0.56
342.88 K, 19987 kPa, x2 = 0.0816	796.28 ± 0.45
342.88 K, 19996 kPa, x2 = 0.9216	750.81 ± 0.55
342.88 K, 21039 kPa, x2 = 0.0816	797.11 ± 0.45
342.88 K, 21039 kPa, x2 = 0.9216	760.88 ± 0.53
342.88 K, 21996 kPa, x2 = 0.0816	797.87 ± 0.45
342.88 K, 22026 kPa, x2 = 0.9216	769.6 ± 0.5
342.88 K, 22991 kPa, x2 = 0.0816	798.65 ± 0.45
342.88 K, 24056 kPa, x2 = 0.0816	799.48 ± 0.45
342.88 K, 25041 kPa, x2 = 0.0816	800.25 ± 0.45
342.89 K, 14024 kPa, x2 = 0.8573	720.89 ± 0.75
342.89 K, 15020 kPa, x2 = 0.8573	735.53 ± 0.57
342.89 K, 16007 kPa, x2 = 0.8573	747 ± 0.53
342.89 K, 17031 kPa, x2 = 0.8573	757.08 ± 0.52
342.89 K, 18025 kPa, x2 = 0.8573	765.71 ± 0.51
342.89 K, 19016 kPa, x2 = 0.8573	773.47 ± 0.5
342.89 K, 20036 kPa, x2 = 0.8573	780.77 ± 0.49
342.89 K, 21016 kPa, x2 = 0.8573	787.25 ± 0.49
342.89 K, 21989 kPa, x2 = 0.8573	793.31 ± 0.49
342.89 K, 23049 kPa, x2 = 0.8573	799.42 ± 0.49
342.89 K, 24035 kPa, x2 = 0.8573	804.78 ± 0.48
342.89 K, 24945 kPa, x2 = 0.8573	809.51 ± 0.48
342.95 K, 13102 kPa, x2 = 0.6054	801.79 ± 0.54
342.95 K, 14086 kPa, x2 = 0.6054	804.2 ± 0.45
342.95 K, 15021 kPa, x2 = 0.6054	806.46 ± 0.45
342.95 K, 16051 kPa, x2 = 0.6054	808.84 ± 0.45
342.95 K, 17053 kPa, x2 = 0.6054	811.1 ± 0.45
342.95 K, 18061 kPa, x2 = 0.6054	813.31 ± 0.45
342.95 K, 19049 kPa, x2 = 0.6054	815.42 ± 0.45
342.95 K, 20084 kPa, x2 = 0.6054	817.54 ± 0.45
342.95 K, 21075 kPa, x2 = 0.6054	819.56 ± 0.45
342.95 K, 22070 kPa, x2 = 0.6054	821.54 ± 0.45
342.95 K, 23069 kPa, x2 = 0.6054	823.48 ± 0.45
342.95 K, 24068 kPa, x2 = 0.6054	825.37 ± 0.45
342.95 K, 25106 kPa, x2 = 0.6054	827.29 ± 0.46
342.96 K, 7006 kPa, x2 = 0.1347	785.93 ± 0.44
342.96 K, 8027 kPa, x2 = 0.1347	786.83 ± 0.44
342.96 K, 9036 kPa, x2 = 0.1347	787.79 ± 0.44
342.96 K, 10053 kPa, x2 = 0.1347	788.74 ± 0.44
342.96 K, 11003 kPa, x2 = 0.1347	789.61 ± 0.44
342.96 K, 12025 kPa, x2 = 0.1347	790.55 ± 0.44
342.96 K, 13042 kPa, x2 = 0.1347	791.48 ± 0.44
342.96 K, 14006 kPa, x2 = 0.1347	792.33 ± 0.44
342.96 K, 15009 kPa, x2 = 0.1347	793.22 ± 0.44
342.96 K, 16036 kPa, x2 = 0.1347	794.12 ± 0.44
342.96 K, 17009 kPa, x2 = 0.1347	794.98 ± 0.44
342.96 K, 18011 kPa, x2 = 0.1347	795.84 ± 0.45
342.96 K, 19019 kPa, x2 = 0.1347	796.7 ± 0.45
342.96 K, 20016 kPa, x2 = 0.1347	797.55 ± 0.45
342.96 K, 20998 kPa, x2 = 0.1347	798.37 ± 0.45
342.96 K, 22010 kPa, x2 = 0.1347	799.2 ± 0.45
342.96 K, 23002 kPa, x2 = 0.1347	800.03 ± 0.45
342.96 K, 24085 kPa, x2 = 0.1347	800.92 ± 0.45
342.96 K, 25038 kPa, x2 = 0.1347	801.69 ± 0.45
352.71 K, 508 kPa, x2 = 0	768.15 ± 0.43
352.71 K, 1011 kPa, x2 = 0	768.66 ± 0.43
352.71 K, 1995 kPa, x2 = 0	769.61 ± 0.43
352.71 K, 3014 kPa, x2 = 0	770.57 ± 0.43
352.71 K, 3998 kPa, x2 = 0	771.49 ± 0.43
352.71 K, 5022 kPa, x2 = 0	772.45 ± 0.43
352.71 K, 6012 kPa, x2 = 0	773.35 ± 0.44
352.71 K, 7006 kPa, x2 = 0	774.26 ± 0.44
352.71 K, 8024 kPa, x2 = 0	775.17 ± 0.44
352.71 K, 9005 kPa, x2 = 0	776.05 ± 0.44
352.71 K, 10016 kPa, x2 = 0	776.94 ± 0.44
352.71 K, 11026 kPa, x2 = 0	777.81 ± 0.44
352.71 K, 12001 kPa, x2 = 0	778.65 ± 0.44
352.71 K, 13002 kPa, x2 = 0	779.5 ± 0.44
352.71 K, 14026 kPa, x2 = 0	780.35 ± 0.44
352.71 K, 15000 kPa, x2 = 0	781.18 ± 0.44
352.71 K, 16005 kPa, x2 = 0	781.98 ± 0.44
352.71 K, 17023 kPa, x2 = 0	782.81 ± 0.44
352.71 K, 18003 kPa, x2 = 0	783.59 ± 0.44
352.71 K, 19049 kPa, x2 = 0	784.43 ± 0.45
352.71 K, 20035 kPa, x2 = 0	785.2 ± 0.45
352.71 K, 21002 kPa, x2 = 0	785.96 ± 0.45
352.71 K, 21995 kPa, x2 = 0	786.73 ± 0.45
352.71 K, 23020 kPa, x2 = 0	787.52 ± 0.45
352.71 K, 24045 kPa, x2 = 0	788.32 ± 0.45
352.71 K, 25009 kPa, x2 = 0	789.05 ± 0.45
352.73 K, 17393 kPa, x2 = 0.9757	574.15 ± 0.83
352.73 K, 18036 kPa, x2 = 0.9757	591.88 ± 0.79
352.73 K, 19032 kPa, x2 = 0.9757	616.27 ± 0.74
352.73 K, 20013 kPa, x2 = 0.9757	637.17 ± 0.69
352.73 K, 21057 kPa, x2 = 0.9757	656.66 ± 0.66
352.73 K, 22011 kPa, x2 = 0.9757	672.48 ± 0.63
352.73 K, 23064 kPa, x2 = 0.9757	688.28 ± 0.61
352.73 K, 24053 kPa, x2 = 0.9757	701.67 ± 0.58
